The values that follow come from article PMC9775652, “Concomitant Administration of Red Ginseng Extract with Lactic Acid Bacteria Increases the Plasma Concentration of Deglycosylated Ginsenosides in Healthy Human Subjects” (Biomolecules, 2022).

Values joined by “and” are separate entries in the source; they are usually repeats but may differ in a detail not shown here. Equal entries are not always repeated. Where two headings read alike, the source gives them in different places.

Broadly, the Cmax is the peak of the concentration-time curve. The term MRT denotes the average time that molecules of a dose stay in the body. Broadly, the Tmax is the time from dosing to the highest level. A word on the AUC: it is concentration integrated over time.

Data set [1] is described as follows: Pharmacokinetic study of ginsenosides in healthy humans after repeated oral RGE with or without LAB. The class given is in vivo, human. Conditions: for Cmax / MRT / Tmax / AUC: male, in vivo, human plasma, mean ± SD, n = 5; for Cmax: read-out: Cmax; for MRT: read-out: MRT; for Tmax: read-out: Tmax; for AUC: AUC 0 to 24 h, read-out: AUC.
A short description of data set [2]: Transport (permeability) of ginsenosides in CaCo-2 cell monolayers. It counts as in vitro ADME. Conditions: human, Caco-2, CaCo-2 cell monolayers, 50 µM; B to A Papp divided by A to B Papp; read-out: Efflux ratio (ER). A general note: Passage across Caco-2 layers is used to estimate intestinal permeability.
The conditions of data set [3]: cited from earlier work.
[4] abbreviates: 104.1 mg total ginsenosides/day, RGE group, RGE oral 14 days.

Regarding `CC(C)=CCC[C@](C)(O)[C@H]1CC[C@]2(C)[C@@H]1[C@H](O)C[C@@H]1[C@@]3(C)CC[C@H](O[C@@H]4O[C@H](CO)[C@@H](O)[C@H](O)[C@H]4O)C(C)(C)[C@@H]3CC[C@]12C` [GRh2, ginsenoside Rh2], in data set [1] (RGE + LAB group compared to RGE group, humans, 2 weeks), the “Fold increase of plasma AUC after LAB supplementation” value is 2.1 fold and 2.7 fold. For the same compound, in data set [1] (RGE + LAB group versus RGE group, humans, result in words), the “Change of AUC / pharmacokinetic parameters by RGE and LAB co-administration” value is “significantly increased”. In addition, in data set [1] (setting [4]), the Cmax was found to be 2.1 ± 0.8 ng/mL, the MRT was found to be 17 ± 9.3 h and the Tmax worked out at 10.7 ± 0.6 h. The AUC in data set [1] (RGE + LAB group, RGE plus LAB (1 billion CFU/2 g) once daily oral 14 days) came out at 57.1 ± 22 ng·h/mL. Besides, in data set [1] (RGE + LAB group, oral 14 days), the Cmax was found to be 13.9 ± 12.8 ng/mL, the MRT amounted to 10.2 ± 1.6 h and the Tmax is 10.6 ± 1.8 h. Besides, the AUC in data set [1] (RGE group, RGE once daily oral 14 days (104.1 mg total ginsenosides/day)) came out at 21.3 ± 10.1 ng·h/mL. Further, in data set [2], the efflux ratio at 50 µM turned out to be 2.3. The “Oral BA” value in data set [3] was 5%.
